What was measured:
Type in all cases: cell-based, African green monkey
cytosolic Ca^2+ [1] = test: Retention of Ca^2+ levels after wash-out, COS-7 cells carrying pCPG (Example 9); conditions: CPG; 20 minutes stimulation; thapsigargin or cyproheptadine added to 0.5 mM histamine or ATP; 2 μM ionomycin
Description: Retention of cytosolic calcium Ca^2+ levels in response to an external stimulus were monitored on the basis of the luminescence intensities from COS-7 cells carrying pCPG.
The cells were washed twice with PBS after ligand stimulation, and harvested by trypsinization and centrifugation. This wash-out terminates the external stimulation of ligands for elevating cytosolic Ca^2+ levels. The cells were resuspended with a 40 mL substrate buffer carrying coelenterazine, and then transferred to a test tube to determine the luminescence with a luminometer (Minilumat LB9506).

COS-7 cells = test: Saturation rate of substrate in COS-7 cells carrying pCPG-ctrl (Example 13); conditions: HBSS buffer
Description: A reaction rate of coelenterazine saturation in COS-7 cells was monitored. […] The cells on the plate were washed once with HBSS buffer and were saturated with 500 μL HBSS buffer. The luminescence variances after coelenterazine addition were monitored with a bioluminescence plate reader (Mithras LB 940; Berthold).

cytoplasm Ca^2+ = test: Ligand affinity of CPG and CPG-ctrl, histamine-triggered Ca^2+ (Example 12)
Text: First, GLuc was dissected at Q105, and the original N- and C-terminals of the fragments were circularly permutated with a 10 GS linker. The outer terminals were respectively fused with M13 and CaM to form CPG. CPG-ctrl which is different from CPG only in that GLuc was not circularly permutated was parallelly formed as a control probe of CPG by the use of the same components as CPG (FIG. 20).
As in Example 2, COS-7 cells cultured in a black, glass-bottom plate (24-well) were transiently transfected with pCPG or pCPG-ctrl, and stocked in a cell incubator for 16 hours. The cells were saturated with a 300 μL HBSS buffer containing coelenterazine.

cytosolic Ca^2+ [2] = test: Ca^2+ dynamics in COS-7 cells transfected with pCPG or pSMG (Example 8); conditions: 1 mM histamine, CPG
Text: The dynamics of cytosolic Ca^2+ in COS-7 cells were monitored in the cells transfected with pCPG and in the cells transfected with SMG shown in FIG. 14 as a control. The free Ca^2+ was a representative second messenger in living mammalian cells. […] The outer terminals were respectively fused with M13 peptide and calmodulin. SMG is different from CPG in that calmodulin and M13 peptide are linked between N- and C-terminal fragments. That is, the luciferases are not circularly permutated in SMG.
As in Example 2, COS-7 cells cultured in a black, glass-bottom plate (24-well) were transfected with pCPG or pSMG, and stocked in a cell incubator for 16 hours. The cells were saturated with a 300 μL Hank's balanced salt solution (HBSS) buffer containing coelenterazine.

SMILES: Nc1ncnc2c1ncn2[C@@H]1O[C@H](COP(=O)(O)OP(=O)(O)OP(=O)(O)O)[C@@H](O)[C@H]1O [ATP]
- cytosolic Ca^2+ levels (luminescence) after wash-out (cytosolic Ca^2+ [1]): quickly decreased

SMILES: C[C@H](CCC(=O)O)C[C@H](C)C[C@H](C)C(=O)/C=C(\O)[C@H](C)C[C@H](C)C/C=C/[C@@H](C)[C@@H](O)[C@@H](C)[C@@H](O)C[C@@H]1CC[C@@](C)([C@H]2CC[C@@](C)([C@@H](C)O)O2)O1 [Ionomycin, ionomycin]
- cytosolic Ca^2+ levels (luminescence) after wash-out (cytosolic Ca^2+ [1]): retaining certain levels

SMILES: Oc1ccc(Cc2nc3c(Cc4ccccc4)nc(-c4ccc(O)cc4)cn3c2O)cc1 [coelenterazine]
- time in which the COS-7 cells were saturated (COS-7 cells): 8.5 min

SMILES: NCCc1c[nH]cn1 [histamine]
- concentration from which CPG started sensing (cytoplasm Ca^2+): 0.25 mM
- time to reach plateau of luminescence (cytoplasm Ca^2+; 1 mM histamine, CPG): ~10 min
- time to reach plateau of luminescence (cytosolic Ca^2+ [2]): ~10 min

SMILES: C/C=C(/C)C(=O)O[C@H]1C(C)=C2[C@H]([C@@H]1OC(=O)CCCCCCC)[C@@](C)(OC(C)=O)C[C@H](OC(=O)CCC)[C@@]1(O)[C@H]2OC(=O)[C@@]1(C)O [thapsigargin]
- cytosolic Ca^2+ levels (luminescence) after wash-out (cytosolic Ca^2+ [1]): retained

Reference: patent US8697356B2, “Single-molecule-format probe and utilization thereof” (National Institute of Advanced Industrial Science and …, priority 2008, dated 2014)
